Values joined by “and” are separate entries in the source; they are usually repeats but may differ in a detail not shown here. Equal values may be shown once.
Assays:
[1] = target: PTK2B (Homo sapiens, UniProt Q14289); assay: Kinase assay; format: biochemical; settings: average of duplicate measurements
[2] = target: C-MET (Homo sapiens, UniProt P08581); assay: Kinase assay; format: biochemical; settings: average of duplicate measurements
[3] = target: ROS1 (G2101C) (Homo sapiens, UniProt P08922, G2101C); assay: Kinase assay; format: biochemical; settings: average of duplicate measurements
ROS1 (G2101C), sequence (P08922 28-2347 G2101C): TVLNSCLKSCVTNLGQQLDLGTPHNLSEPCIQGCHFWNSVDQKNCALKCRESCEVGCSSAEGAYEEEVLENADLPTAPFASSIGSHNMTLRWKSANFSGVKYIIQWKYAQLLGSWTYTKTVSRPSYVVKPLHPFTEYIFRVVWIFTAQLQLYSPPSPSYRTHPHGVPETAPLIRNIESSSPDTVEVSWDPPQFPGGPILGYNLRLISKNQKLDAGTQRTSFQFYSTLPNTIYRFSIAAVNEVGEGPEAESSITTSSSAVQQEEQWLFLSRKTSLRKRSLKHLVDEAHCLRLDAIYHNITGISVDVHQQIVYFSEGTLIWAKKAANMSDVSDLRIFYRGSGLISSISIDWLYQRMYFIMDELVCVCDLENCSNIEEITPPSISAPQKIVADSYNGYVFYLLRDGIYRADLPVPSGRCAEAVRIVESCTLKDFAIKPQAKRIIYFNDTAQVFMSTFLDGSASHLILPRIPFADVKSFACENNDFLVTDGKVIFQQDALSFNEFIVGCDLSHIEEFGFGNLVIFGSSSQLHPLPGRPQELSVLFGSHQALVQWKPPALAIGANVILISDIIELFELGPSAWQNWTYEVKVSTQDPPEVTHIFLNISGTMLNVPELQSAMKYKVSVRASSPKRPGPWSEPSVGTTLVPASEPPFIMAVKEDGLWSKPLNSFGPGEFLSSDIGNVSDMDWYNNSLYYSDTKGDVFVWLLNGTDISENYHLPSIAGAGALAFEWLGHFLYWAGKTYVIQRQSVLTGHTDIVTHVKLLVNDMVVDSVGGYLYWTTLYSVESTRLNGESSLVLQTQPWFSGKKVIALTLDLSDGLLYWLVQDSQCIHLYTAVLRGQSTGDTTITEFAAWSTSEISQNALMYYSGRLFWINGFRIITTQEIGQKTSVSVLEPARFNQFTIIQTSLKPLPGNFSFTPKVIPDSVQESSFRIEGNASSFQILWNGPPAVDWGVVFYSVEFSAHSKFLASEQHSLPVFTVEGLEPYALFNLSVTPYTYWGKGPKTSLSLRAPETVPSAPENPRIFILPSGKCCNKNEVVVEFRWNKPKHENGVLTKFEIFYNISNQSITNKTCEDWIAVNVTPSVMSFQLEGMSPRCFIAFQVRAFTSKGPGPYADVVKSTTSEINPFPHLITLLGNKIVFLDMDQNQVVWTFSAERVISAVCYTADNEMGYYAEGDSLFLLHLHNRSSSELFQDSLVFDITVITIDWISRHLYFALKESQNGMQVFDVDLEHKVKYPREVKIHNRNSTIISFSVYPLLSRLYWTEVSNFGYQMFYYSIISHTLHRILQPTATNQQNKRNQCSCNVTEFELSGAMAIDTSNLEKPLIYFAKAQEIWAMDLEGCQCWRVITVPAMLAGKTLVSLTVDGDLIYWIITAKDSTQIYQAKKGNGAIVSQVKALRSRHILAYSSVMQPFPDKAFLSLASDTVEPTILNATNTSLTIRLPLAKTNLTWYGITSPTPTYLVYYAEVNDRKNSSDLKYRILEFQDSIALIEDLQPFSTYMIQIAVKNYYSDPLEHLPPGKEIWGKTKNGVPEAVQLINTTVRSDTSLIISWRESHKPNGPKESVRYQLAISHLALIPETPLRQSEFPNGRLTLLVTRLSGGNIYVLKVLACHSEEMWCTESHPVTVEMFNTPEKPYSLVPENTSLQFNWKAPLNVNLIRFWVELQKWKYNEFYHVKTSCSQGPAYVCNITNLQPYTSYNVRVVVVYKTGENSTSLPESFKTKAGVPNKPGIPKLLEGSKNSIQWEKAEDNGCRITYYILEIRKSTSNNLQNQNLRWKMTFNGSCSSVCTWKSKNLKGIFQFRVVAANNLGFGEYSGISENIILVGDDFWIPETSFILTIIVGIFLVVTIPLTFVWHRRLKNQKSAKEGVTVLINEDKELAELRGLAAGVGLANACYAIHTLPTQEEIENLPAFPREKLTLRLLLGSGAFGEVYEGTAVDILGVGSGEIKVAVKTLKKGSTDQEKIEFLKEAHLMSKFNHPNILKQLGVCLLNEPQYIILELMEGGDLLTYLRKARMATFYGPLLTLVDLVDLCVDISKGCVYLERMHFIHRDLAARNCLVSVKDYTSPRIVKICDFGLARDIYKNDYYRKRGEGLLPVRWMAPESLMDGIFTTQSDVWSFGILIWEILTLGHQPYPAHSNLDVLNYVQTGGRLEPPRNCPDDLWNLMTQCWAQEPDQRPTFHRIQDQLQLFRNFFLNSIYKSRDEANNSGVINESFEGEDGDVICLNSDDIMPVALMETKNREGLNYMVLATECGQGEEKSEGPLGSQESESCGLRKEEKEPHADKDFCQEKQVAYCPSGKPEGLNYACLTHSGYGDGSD

[4] = system: ROS1 (L2086F); assay: Degradation assay; format: cell-based; settings: average of duplicate measurements
Experimental: However, the degradation selectivity of 9o often contrasts with its kinase binding selectivity as determined in cells treated with 9o where the kinase level was measurable by Western blot analysis. […] For example, FLT3, CHEK2, and FES, all with kinase binding at <10 nM, were only moderately or minimally degraded, if at all (Table 9).
Protein levels were analyzed using a WES instrument according to the WES User Guide from ProteinSimple in duplicate experiments. The samples were mixed with the fluorescent 5 master mix (ProteinSimple) and then heated at 95 °C for 5 min. Boiled samples, biotinylated protein ladder, antibody diluent, Streptavidin-HRP, primary antibodies, ProteinSimple horseradish peroxidase conjugated antirabbit or antimouse secondary antibodies, luminol-peroxide, and wash buffer were loaded into the WES plate (Wes 12–230 kDa Prefilled Plates with Split Buffer, ProteinSimple). The plates and capillary cartridges were loaded into the WES instrument, and protein separation, antibody incubation, and imaging were performed according to manufacturer’s instructions. Compass software (ProteinSimple) was used to acquire the data and to generate the virtual blot image reconstruction and chemiluminescence signal intensity electropherograms. […] Protein levels are expressed as the AUC of the peak chemiluminescence intensity. […]

[5] = target: FES (Homo sapiens, UniProt P07332); assay: Kinase assay; format: biochemical; settings: average of duplicate measurements
FES, sequence (P07332 whole entry, species assumed): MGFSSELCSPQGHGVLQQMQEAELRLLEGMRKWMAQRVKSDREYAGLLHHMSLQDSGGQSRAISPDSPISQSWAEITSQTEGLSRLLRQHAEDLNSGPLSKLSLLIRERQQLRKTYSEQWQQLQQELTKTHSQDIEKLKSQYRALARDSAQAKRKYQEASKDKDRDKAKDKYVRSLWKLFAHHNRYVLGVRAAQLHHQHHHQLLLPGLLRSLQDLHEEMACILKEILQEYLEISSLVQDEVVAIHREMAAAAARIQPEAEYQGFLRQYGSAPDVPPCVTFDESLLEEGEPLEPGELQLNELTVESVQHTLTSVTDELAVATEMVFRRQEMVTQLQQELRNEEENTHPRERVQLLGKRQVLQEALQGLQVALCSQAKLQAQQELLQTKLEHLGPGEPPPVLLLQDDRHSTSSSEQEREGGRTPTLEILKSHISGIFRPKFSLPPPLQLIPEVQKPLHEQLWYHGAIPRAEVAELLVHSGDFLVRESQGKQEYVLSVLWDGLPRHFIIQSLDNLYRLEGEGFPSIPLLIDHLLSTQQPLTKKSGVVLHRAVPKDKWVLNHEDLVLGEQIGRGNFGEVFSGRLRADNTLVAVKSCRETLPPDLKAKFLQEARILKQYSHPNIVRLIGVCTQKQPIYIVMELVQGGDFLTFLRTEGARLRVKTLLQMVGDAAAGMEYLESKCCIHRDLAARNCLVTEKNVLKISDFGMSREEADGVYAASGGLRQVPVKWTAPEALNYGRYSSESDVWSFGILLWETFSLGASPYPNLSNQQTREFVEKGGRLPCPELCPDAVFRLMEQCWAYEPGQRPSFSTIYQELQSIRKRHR

[6] = target: ROS1 (G2101A) (Homo sapiens, UniProt P08922, G2101A); assay: Kinase assay; format: biochemical; settings: average of duplicate measurements
ROS1 (G2101A), sequence (P08922 28-2347 G2101A): as the sequence (P08922 28-2347 G2101C) above, with C2074A counted along it

[7] = target: CHEK2 (Homo sapiens, UniProt O96017); assay: Kinase assay; format: biochemical; settings: average of duplicate measurements
CHEK2, sequence (O96017 whole entry, species assumed): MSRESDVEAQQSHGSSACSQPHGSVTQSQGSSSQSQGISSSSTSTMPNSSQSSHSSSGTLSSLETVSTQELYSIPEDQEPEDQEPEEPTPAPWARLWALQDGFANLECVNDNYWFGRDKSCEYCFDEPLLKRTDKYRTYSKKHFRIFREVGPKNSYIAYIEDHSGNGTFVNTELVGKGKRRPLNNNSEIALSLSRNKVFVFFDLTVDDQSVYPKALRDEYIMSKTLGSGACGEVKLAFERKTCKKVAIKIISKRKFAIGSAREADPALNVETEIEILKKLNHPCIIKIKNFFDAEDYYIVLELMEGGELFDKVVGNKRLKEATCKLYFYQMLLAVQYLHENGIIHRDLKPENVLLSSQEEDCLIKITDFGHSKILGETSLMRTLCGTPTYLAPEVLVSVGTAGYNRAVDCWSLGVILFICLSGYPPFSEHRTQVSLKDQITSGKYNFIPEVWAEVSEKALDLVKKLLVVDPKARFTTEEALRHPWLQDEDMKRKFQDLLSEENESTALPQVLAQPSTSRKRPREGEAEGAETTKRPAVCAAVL

[8] = target: ROS1 (G2032R) (Homo sapiens, UniProt P08922, G2032R); assay: Kinase assay; format: biochemical; settings: average of duplicate measurements
ROS1 (G2032R), sequence (P08922 28-2347 G2032R): as the sequence (P08922 28-2347 G2101C) above, with G2005R, C2074G counted along it

[9] = target: NUAK1 (Homo sapiens, UniProt O60285); assay: Kinase assay; format: biochemical; settings: average of duplicate measurements
[10] = system: Ba/F3 ROS1 (SLC34A2) G2032R-D2113G; assay: Antiproliferation assay; format: cell-based; settings: Mus musculus, BaF3; Ba/F3 cell line
Experimental: (§1) Ba/F3 immortalized murine bone marrow–derived pro-B cells were obtained from Creative Biogene (Shirley, NY) and cultured in RPMI supplemented with 10% FBS and IL3 (0.5 ng/mL). Ba/F3 cells expressing ROS1 variants were maintained in RPMI supplemented with 10% FBS and puromycin (0.7 mg/mL). Crizotinib, ceritinib, brigatinib, repotrectinib, and lorlatinib were purchased from MedChem Express. Each compound was dissolved in DMSO and serially diluted in RPMI for cell culture experiments.
(§2) To assess the 72 h effect of drug treatment on cell proliferation, 2000 to 3000 cells were plated in replicates of three in 96-well plates. The plates were placed in an incubator at 37 °C, 5% CO2 for 72 h. Following drug treatments, the cells were incubated with the Alamar Blue Assay reagent (BioRad), 5 μL each well for 4 h at 37 °C and 5% CO2. Luminescence was measured on a multiplate reader and analyzed. […] IC50 values were determined using a nonlinear regression model with a sigmoidal dose response in GraphPad. The data were collected based on triplicate experiments, and presented as mean ± SD.

[11] = system: Ba/F3 ROS1 (SLC34A2) G2032R-F2075C; assay: Antiproliferation assay; format: cell-based; settings: Mus musculus, BaF3; Ba/F3 cell line
Experimental: as §1, §2

[12] = system: Ba/F3 ROS1 (SLC34A2) F2075C-G1837E; assay: Antiproliferation assay; format: cell-based; settings: Mus musculus, BaF3; Ba/F3 cell line
Experimental: as §1, §2

[13] = target: BRK (PTK6) (Homo sapiens, UniProt Q13882); assay: Kinase assay; format: biochemical; settings: average of duplicate measurements
[14] = system: H2228 cells; assay: Whole cell proteomic analysis; format: cell-based, human; settings: 100 nM, 24 h
Experimental: To minimize the effect of signaling blockade on proteomic changes, we decided that a more accurate quantitative determination of proteomic alterations would be to compare degrader-treated to inhibitor-treated.
Cell pellets were dissolved in 1 mL of RIPA buffer, 10 μL of phosphatase inhibitor, and 10 μL of protease inhibitor. Proteins were extracted and concentration was determined by the BCA assay. The protein samples were digested with sequencing grade modified trypsin (Promega Corp; Madison, WI) according to the manufacturer’s instructions. The peptides were labeled using the TMT Isobaric Mass Tagging kit (Thermo Fisher Scientific; # 90,060–90,061; Waltham, MA). The labeled peptide aliquots were then pooled together for subsequent fractionation and analysis. The TMT-labeled peptide mixtures were separated by an automated Easy-nLC1000 system coupled with a Q-Exactive spectrometer (Thermo Finnigan, Waltham, MA). The identification of proteins was performed using Proteome Discoverer software v2.3 (Thermo Fisher Scientific; Waltham, MA) and Mascot v2.6 (Matrix Science, Boston, MA), based on “Uniprot Human” database. The proteins that were identified on the basis of at least one unique peptide were included in the data. The ratios of TMT reporter ion abundance in 9o-treated cells and inhibitor-treated cells were used to calculate protein relative abundance.

[15] = system: Ba/F3 CD74-ROS1 non mutant; assay: Antiproliferation assay (Alamar Blue, 72 h); format: cell-based, mouse; settings: Mus musculus, BaF3, 72 h, Ba/F3 cells, cell growth inhibition

PTK2B, sequence (Q14289 whole entry, species assumed): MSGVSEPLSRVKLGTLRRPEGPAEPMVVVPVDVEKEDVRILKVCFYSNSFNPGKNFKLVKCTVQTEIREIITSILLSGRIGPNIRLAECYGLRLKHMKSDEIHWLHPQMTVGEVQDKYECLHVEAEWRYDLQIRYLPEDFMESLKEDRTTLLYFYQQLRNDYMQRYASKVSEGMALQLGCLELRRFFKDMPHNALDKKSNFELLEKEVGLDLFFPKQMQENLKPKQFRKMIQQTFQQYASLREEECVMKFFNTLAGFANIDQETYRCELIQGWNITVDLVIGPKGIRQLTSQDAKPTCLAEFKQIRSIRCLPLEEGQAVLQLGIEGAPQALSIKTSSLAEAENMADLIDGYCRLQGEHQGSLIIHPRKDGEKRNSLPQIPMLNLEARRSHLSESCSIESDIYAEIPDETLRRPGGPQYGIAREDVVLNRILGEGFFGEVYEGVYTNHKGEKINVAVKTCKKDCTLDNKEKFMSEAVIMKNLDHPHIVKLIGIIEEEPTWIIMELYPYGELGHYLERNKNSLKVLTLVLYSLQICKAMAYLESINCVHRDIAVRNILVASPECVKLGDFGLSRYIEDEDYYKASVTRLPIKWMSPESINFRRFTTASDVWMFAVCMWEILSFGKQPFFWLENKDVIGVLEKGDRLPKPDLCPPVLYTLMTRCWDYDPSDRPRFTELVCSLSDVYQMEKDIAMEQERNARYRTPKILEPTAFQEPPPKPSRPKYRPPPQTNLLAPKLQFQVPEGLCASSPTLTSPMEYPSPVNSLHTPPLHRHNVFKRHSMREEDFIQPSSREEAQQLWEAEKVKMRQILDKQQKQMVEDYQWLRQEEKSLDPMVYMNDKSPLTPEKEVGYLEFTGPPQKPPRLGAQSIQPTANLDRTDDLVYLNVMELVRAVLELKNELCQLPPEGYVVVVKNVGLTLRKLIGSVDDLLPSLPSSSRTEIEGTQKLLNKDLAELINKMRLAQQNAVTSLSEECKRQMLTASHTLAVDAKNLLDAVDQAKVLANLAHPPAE

Work on `COc1cc(N2CCC(N3CCN(CC4CCN(c5ccc6c(c5)CN(C5CCC(=O)NC5=O)C6=O)CC4)CC3)CC2)ccc1Nc1ncc(Cl)c(Nc2ccccc2P(C)(C)=O)n1` (stereo not drawn) [9o, 3-(5-(4-((4-(1-(4-((5-Chloro-4-((2-(dimethylphosphoryl)phenyl)amino)pyrimidin-2-yl)amino)-3-methoxyphenyl)piperidin-4-yl)piperazin-1-yl)methyl)piperidin-1-yl)-1-oxoisoindolin-2-yl)piperidine-2,6-dione] yielded an IC50 [1] of 34 nM, an IC50 [2] of 95 nM and an IC50 [3] of 83 nM. The DC50 [4] was 5.4 nM, the IC50 [5] was < 10 nM and 7.5 nM and the IC50 [6] was 10.9 nM. For the same molecule, the IC50 [7] was < 10 nM and 3.6 nM, the IC50 [8] was 161 nM and the IC50 [9] was 47 nM. For the same molecule, the IC50 [10] was 2.9 ± 0.5 nM, the IC50 [11] was 58.4 ± 11.4 nM and the IC50 [12] was 0.4 ± 0.3 nM. The IC50 [13] was 76 nM, the “kinases significantly degraded (proteomics, degrader-treated vs brigatinib-treated)” value [14] was “only three kinases were significantly degraded” and the IC50 [15] was 1.1 ± 0.3 nM.

From article PMC11513893, “Discovery of Oral Degraders of the ROS1 Fusion Protein with Potent Activity against Secondary Resistance Mutations” (Journal of Medicinal Chemistry, 2024)
